What all share (settings): topical, 5 consecutive days, HPR 0.01%, LA 3%, Eperuline 1% or 3%
Experiment [1] concerns CSC-stimulated human ex-vivo skin. Put plainly: H&E histological analysis of CSC-stimulated human ex-vivo skin. As for the experimental part:
(§1) Human ex-vivo skin was cultured with or without CSC and topically treated with either HPR, HPR-LA, HPR-Eperuline and HPR-LA-Eperuline for 5 days consecutive days (See FIG. 2B; See Table 4 for concentrations).
Fresh human ex-vivo skin was obtained through donor informed consent following abdominoplasty procedures. The tissues were obtained through BioIVT (Westbury, NY, USA) following an approved IRB protocol and shipped to a BSC level 2 research laboratory within 24 h after the procedure where the experiments took place. All experiments were performed in accordance with relevant guidelines and regulations. Donors included a person, person and person. Ex vivo tissues were prepared by excising the subcutaneous fat followed by punch biopsies with disposable 12 mm Skin Biopsy Punch (Fisher Scientific, NC9253254) and placed in 24-well transwell plates with permeable polyester membrane inserts (Fisher Scientific, 07-200-161). At least three biopsies were used for each condition.
Skin tissues were divided into groups of three and placed in the 24-well transwell plates, […] (Cell stimulation cocktail 500×(50-930-5)) was diluted to a 2× concentration in culture media and 650 uL was added to the well on the first day. […]

In a further experiment the test system is IL-1A. Put plainly: Quantification of secreted IL-1A in culture supernatant of CSC-stimulated human ex-vivo skin (ProcartaPlex/Luminex). As for the experimental part:
as §1
(§2) Skin tissues were divided into groups of three and placed in the 24-well transwell plates, […] (Cell stimulation cocktail 500×(50-930-5)) was diluted to a 2× concentration in culture media and 650 uL was added to the well on the first day. Topical treatments were undertaken daily by pipetting 5 uL of treatments onto the tissue and using a Q-tip, spreading treatments across the tissue and left to absorb at room temperature for 30 minutes. Base media without stimulants served as the control group. Tissues were replenished with fresh media with the stimulant on day 1 and 3. On days 1, 3 and 5, supernatant from the culture was collected and aliquoted, and the tissues were bisected and fixed in 10% neutral buffered formalin (Fisher Scientific 22-126-347) for 3 h and then switched to 70% ethanol for storage until histology.
(§3) Tissue culture supernatant was collected at the end of the cultures to evaluate the secretion of several cytokines, chemokines, and growth factors. […]
(§4) Data were assessed using a two-way ANOVA with multiple comparison test. […]

In another experiment the test system is IL-23. Put plainly: Quantification of secreted IL-23 in culture supernatant of CSC-stimulated human ex-vivo skin (ProcartaPlex/Luminex). As for the experimental part: as §1, §2, §3, §4

The source of these data is US20250381129A1, “ANTI-AGING SKIN CARE COMPOSITION” (L'OREAL, priority 2024, published 2025).

For `CC1=C(/C=C/C(C)=C/C=C/C(C)=C/C(=O)OCC(=O)C(C)(C)C)C(C)(C)CCC1` [HPR, hydroxypinacolone retinoate], the “histological signs of inflammation (epidermal spongiosis, immune infiltration)” value in experiment [1] is “exacerbated”. In the experiment with IL-1A, the “secreted IL-1A” value was “significant increase”. Further, in the experiment with IL-23, the “secreted IL-23” value was “significant increase”.
